Results taken from US20250296940A1, “ANNULATED 2-AMINO-3-CYANO THIOPHENES AND DERIVATIVES FOR THE TREATMENT OF CANCER” (Boehringer Ingelheim Int'l GmbH Corp., priority 2021, published 2025).

Legend:
Caco-2 assay = format: in vitro ADME; settings: human, 10 μM compound; for Papp A→B at 90 min, 10 μM: apical to basolateral, pH 7.4, read-out: Caco PappAB; for efflux ratio at 90 min, 10 μM: efflux ratio PappBA/PappAB, pH 7.4, read-out: Caco ER
Description: The assay provides information on the potential of a compound to pass the cell membrane, on the extent of oral absorption as well as on whether the compound is actively transported by uptake and/or efflux transporters. Permeability measurements across polarized, confluent Caco-2 cell monolayers grown on permeable filter supports (Corning, catalog #3391) are used. […] The receiver and donor compartments contain 0.25% bovine serum albumine (BSA) in assay buffer. Passive diffusion and/or active transport of compounds across the monolayer is measured in both apical to basolateral (a-b) and basolateral to apical (b-a) direction. a-b permeability (PappAB) represents drug absorption from the intestine into the blood and b-a permeability (PappBA) drug secretion from the blood back into the intestine via both passive permeability as well as active transport mechanisms mediated by efflux and uptake transporters that are expressed on the Caco-2 cells. After a pre-incubation of 25-30 min at 37° C., at predefined time points (0, 30, 60 and 90 min), samples were taken from the receiver and donor compartment, respectively. Concentrations of test compounds in samples were measured by HPLC/MS/MS, samples from the donor compartment were diluted 1:50 (v:v) with assay buffer, samples from receiver compartment were measured without dilution.
Apparent permeabilities in a-b (PappAB) and b-a (PappBA) directions are calculated according to the formula:
[formula] • Vrec [mL]: buffer volume in receiver compartment • Cdon [μmol/mL]: concentration of test compound in donor compartment at t=0 • ΔCrec: difference between concentrations of test compound in receiver compartment at start and end of incubation time • Δt: Incubation time • Vrec·ΔCrec/Δt [μmol/min]: Amount of compound transferred to receiver compartment per time • A [cm^2]: filter surface
Caco-2 efflux ratios (ER) are calculated as the ratio of PappBA/PappAB.
(§1) Data obtained with the disclosed assay for a selection of compounds (I) according to the invention: […]

CYP3A4 = target: T1, CYP3A4 (Homo sapiens, UniProt P08684); assay: Mechanism based inhibition of CYP3A4 assay (MBI 3A4); format: in vitro ADME; settings: human liver microsomes, 25 uM compound; hydroxy-midazolam formation after 30 min preincubation relative to 0 min
T1 construct: assayed in human liver microsomes (0.02 mg/mL) with midazolam (15 μM) as a substrate; from tissue; host or cells: human liver microsomes
T1 sequence (P08684 whole entry): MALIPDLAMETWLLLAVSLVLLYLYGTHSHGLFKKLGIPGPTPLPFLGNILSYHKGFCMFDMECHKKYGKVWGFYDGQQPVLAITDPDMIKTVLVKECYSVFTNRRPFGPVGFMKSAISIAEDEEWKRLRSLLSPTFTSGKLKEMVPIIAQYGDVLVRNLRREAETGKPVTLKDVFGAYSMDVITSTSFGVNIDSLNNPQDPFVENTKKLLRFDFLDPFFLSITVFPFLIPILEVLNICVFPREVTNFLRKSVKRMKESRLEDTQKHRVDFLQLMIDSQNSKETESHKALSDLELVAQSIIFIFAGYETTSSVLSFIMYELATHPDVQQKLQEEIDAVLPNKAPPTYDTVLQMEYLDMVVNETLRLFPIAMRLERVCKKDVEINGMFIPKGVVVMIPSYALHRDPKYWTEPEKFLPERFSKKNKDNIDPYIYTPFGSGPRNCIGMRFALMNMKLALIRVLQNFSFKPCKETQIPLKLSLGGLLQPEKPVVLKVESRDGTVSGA
Description: The time dependent inhibition towards CYP3A4 is assayed in human liver microsomes (0.02 mg/mL) with midazolam (15 μM) as a substrate. The test compounds and water control (wells w/o test compound) are preincubated in presence of NADPH (1 mM) with human liver microsomes (0.2 mg/mL) at a concentration of 25 uM for 0 min and 30 min. After preincubation, the incubate is diluted 1:10 and the substrate midazolam is added for the main incubation (15 min). The main incubation is quenched with acetonitrile and the formation of hydroxy-midazolam is quantified via LC/MS-MS. The formation of hydroxy-midazolam from the 30 min preincubation relative to the formation from the 0 min preincubation is used as a readout. Values of less than 100% mean that the substrate midazolam is metabolized to a lower extent upon 30 min preincubation compared to 0 min preincubation. In general low effects upon 30 min preincubation are desired (corresponding to values close to 100%/not different to the values determined with water control).
as §1

[1] = tested on: NCI-H2122 cells (NSCLC, G12C); assay: NCI-H2122 CTG proliferation assay (120 h); format: cell-based; settings: Homo sapiens, NCI-H2122, CellTiter-Glo
Description: The CTG assay is designed to measure quantitatively the proliferation of NCI-H2122 cells (ATCC CRL-5985), using the CellTiter Glow Assay Kit (Promega G7571). Cells are grown in RPMI medium (ATCC) supplemented with Fetal Calf Serum (Life Technologies, Gibco BRL, Cat. No. 10270-106). On “day 0” 200 NCI-H2122 cells are seeded in 60 μL RPMI ATCC+10% FCS+ Penstrep in a black 384-well plate, flat and clear bottom (Greiner, PNr. 781091). Cells are then incubated in the plates at 37° C. in a CO2 incubator overnight. On day 1, compounds (10 mM stock in DMSO) are added with the ECHO acoustic liquid handler system (Beckman Coulter), including DMSO controls. Plates are incubated for 120 h, and cell viability is measured using CellTiter-Glo luminescent cell viability reagent (Promega product code G7570). Viability (stated as percent of control) is defined as relative luminescence units RLU of each well divided by the RLU of cells in DMSO controls. IC50 values are determined from viability measurements by non-linear regression using a four parameter model.
IC50 values of representative compounds according to the invention measured with these assays in the indicated cell lines: […]

Papp A→B at 90 min, 10 μM (Caco-2 assay) [×10⁻⁶ cm/s]	efflux ratio at 90 min, 10 μM (Caco-2 assay)	MBI 3A4 (CYP3A4) [%]	IC50 [1] [nM]	SMILES
4.4	3.6	61		C=C(F)C(=O)N1[C@@H](C)CN(c2cc(O[C@@H](C)[C@@H]3CCCN3C)nc(-c3onc4c3CCC[C@@]43CCCc4sc(N)c(C#N)c43)n2)C[C@@H]1C [Ia-1]
2.9	8.6	62	2	C=CC(=O)N1[C@@H](C)CN(c2cc(O[C@@H](C)[C@@H]3CCCN3C)nc(-c3onc4c3CCC[C@@]43CCCc4sc(N)c(C#N)c43)n2)C[C@@H]1C [Ia-2]
			96	C=C(F)C(=O)N1[C@@H](C)CN(c2cc(-c3onc4c3CCC[C@@]43CCCc4sc(N)c(C#N)c43)nc(O[C@@H](C)[C@@H]3CCCN3C)n2)C[C@@H]1C [Ia-3]
1.3	30.7		4	C=CC(=O)N1[C@@H](C)CN(c2cc(-c3onc4c3CCC[C@@]43CCCc4sc(N)c(C#N)c43)nc(O[C@@H](C)[C@@H]3CCCN3C)n2)C[C@@H]1C [Ia-4]
0.8	28.6		29	C[C@H](Oc1cc(N2C[C@H](C)N(C(=O)/C=C/CF)[C@@H](C)C2)nc(-c2noc3c2CCC[C@@]32CCCc3sc(N)c(C#N)c32)n1)[C@@H]1CCCN1C [Ib-1]
	18.2		19	C=CC(=O)N1CCN(c2cc(O[C@@H](C)[C@@H]3CCCN3C)nc(-c3noc4c3CCC[C@@]43CCCc4sc(N)c(C#N)c43)n2)CC12CC2 [Ib-2]
6.3	3	65		C=CC(=O)N1[C@@H](C)CN(c2cc(O[C@@H](C)[C@@H]3CCCN3C)nc(-c3noc4c3CCC[C@@]43CCCc4sc(N)c(C#N)c43)n2)C[C@@H]1C [Ib-3]
3.1	12.3	78		C=CC(=O)N1[C@@H](C)CN(c2cc(-c3noc4c3CCC[C@@]43CCCc4sc(N)c(C#N)c43)nc(O[C@@H](C)[C@@H]3CCCN3C)n2)C[C@@H]1C [Ib-4]
11	1.1	69	21	C=C(F)C(=O)N1[C@@H](C)CN(c2cc(O[C@@H](C)[C@@H]3CCCN3C)nc(-c3noc4c3CCC[C@@]43CCCc4sc(N)c(C#N)c43)n2)C[C@@H]1C [Ib-5]
9.2	1.7	64	35	C=C(F)C(=O)N1[C@@H](C)CN(c2cc(-c3noc4c3CCC[C@@]43CCCc4sc(N)c(C#N)c43)nc(O[C@@H](C)[C@@H]3CCCN3C)n2)C[C@@H]1C [Ib-6]
2.4	10.4	62	190	C[C@H](Oc1nc(-c2noc3c2CCC[C@@]32CCCc3sc(N)c(C#N)c32)cc(N2C[C@H](C)N(C(=O)/C=C/CF)[C@@H](C)C2)n1)[C@@H]1CCCN1C [Ib-7]
			999	C[C@H](Oc1nc(-c2noc3c2CCC[C@@]32CCCc3sc(N)c(C#N)c32)cc(N2C[C@H](C)N(C(=O)/C=C/c3cccnc3)[C@@H](C)C2)n1)[C@@H]1CCCN1C [Ib-8]
2.4	7.5	68	2260	COC/C=C/C(=O)N1[C@@H](C)CN(c2cc(-c3noc4c3CCC[C@@]43CCCc4sc(N)c(C#N)c43)nc(O[C@@H](C)[C@@H]3CCCN3C)n2)C[C@@H]1C [Ib-9]
